# Legend:
# Integrin alpha-4 [1] = target: T1, Integrin alpha-4 (Homo sapiens, UniProt P13612); experiment: Compound was evaluated for VCAM-VLA-4 antagonistic activity using Ramos cell assay; format: functional, cell-based
# T1 sequence (P13612 whole entry): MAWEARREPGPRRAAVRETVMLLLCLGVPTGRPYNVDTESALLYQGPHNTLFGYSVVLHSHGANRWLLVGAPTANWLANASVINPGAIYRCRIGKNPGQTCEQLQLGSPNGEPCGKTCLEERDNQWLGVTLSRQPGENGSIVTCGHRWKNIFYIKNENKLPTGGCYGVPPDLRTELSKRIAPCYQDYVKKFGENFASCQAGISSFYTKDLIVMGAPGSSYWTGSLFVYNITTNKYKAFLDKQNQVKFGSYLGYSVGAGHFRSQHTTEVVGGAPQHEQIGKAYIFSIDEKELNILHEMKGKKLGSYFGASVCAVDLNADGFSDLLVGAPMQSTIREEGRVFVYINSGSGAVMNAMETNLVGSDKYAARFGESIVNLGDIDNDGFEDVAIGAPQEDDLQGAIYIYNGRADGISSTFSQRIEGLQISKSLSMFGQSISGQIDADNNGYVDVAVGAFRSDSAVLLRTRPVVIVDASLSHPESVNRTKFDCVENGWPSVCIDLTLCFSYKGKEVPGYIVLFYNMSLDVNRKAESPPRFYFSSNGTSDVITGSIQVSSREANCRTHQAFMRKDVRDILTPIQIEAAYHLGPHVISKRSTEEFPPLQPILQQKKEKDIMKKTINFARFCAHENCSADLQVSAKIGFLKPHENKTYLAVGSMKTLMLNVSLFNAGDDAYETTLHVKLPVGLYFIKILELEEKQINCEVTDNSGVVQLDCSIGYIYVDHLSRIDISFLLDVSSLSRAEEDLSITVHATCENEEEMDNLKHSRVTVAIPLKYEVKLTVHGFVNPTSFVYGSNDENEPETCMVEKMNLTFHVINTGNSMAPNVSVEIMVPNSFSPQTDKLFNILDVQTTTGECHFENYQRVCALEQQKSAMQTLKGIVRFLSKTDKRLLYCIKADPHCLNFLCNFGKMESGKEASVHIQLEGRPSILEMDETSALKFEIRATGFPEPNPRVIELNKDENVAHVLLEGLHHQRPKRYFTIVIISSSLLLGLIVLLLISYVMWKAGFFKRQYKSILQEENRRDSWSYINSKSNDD
# Integrin alpha-4 [2] = target: T1, Integrin alpha-4; experiment: Compound was evaluated for VCAM-VLA-4 antagonistic activity using solid phase assay; format: functional
Compound,IC50 (Integrin alpha-4 [1]),IC50 (Integrin alpha-4 [2])
CC(=O)N1CCC(c2ccc(O)cc2)C1C(=O)N[C@H]1CCSC[C@@H](C(=O)O)NC(=O)C2(CCCC2)CCNC1=O (some centres not stated),220 nM,2.7 nM
CC(=O)N1CCC(c2ccc(O)cc2)C1C(=O)N[C@H]1CSSC[C@@H](C(=O)O)NC(=O)C2(CCCC2)CCNC1=O (some centres not stated),1.5 nM,0.1 nM
CC(=O)N1CCC(c2ccc(O)cc2)C1C(=O)N[C@H]1CCSCC[C@@H](C(=O)O)NC(=O)C2(CCCC2)CCNC1=O (some centres not stated),–,35 nM
CC(=O)N1CCC(c2ccc(O)cc2)C1C(=O)N[C@H]1CSCC[C@@H](C(=O)O)NC(=O)C2(CCCC2)CCNC1=O (some centres not stated),20 nM,0.5 nM

# Reference: ChEMBL document CHEMBL1132892, “Cyclic thioether peptide mimetics as VCAM-VLA-4 antagonists” (Bioorg Med Chem Lett, 2000)
